The values below are quoted from earlier work in article PMC4408927 (Nature, 2015).

Structures are written as SMILES.

Assay in data set [1]: not given
The source holds these as a separate data set.

On to `CNc1nc(I)nc2c1ncn2[C@H]1C[C@H](OP(=O)(O)O)[C@]2(COP(=O)(O)O)C[C@H]12` [MRS2500, (1′R,2′S,4′S,5′S)-4-(2-Iodo-6-methylaminopurin-9-yl)-1-[(phosphato)methyl]-2(phosphato)bicycle[3.1.0]-hexane], for which the Arterial thrombosis result is listed as “effectively reduces”. In the data set with platelet aggregation, the ADP-induced platelet aggregation result is “completely blocks”. Further, the Bleeding time result in data set [1] is recorded as “moderate prolongation”.
Regarding `CC(C)(C)c1ccccc1Oc1ncccc1NC(=O)Nc1ccc(OC(F)(F)F)cc1` [BPTU, 1-(2-(2-(tert-butyl)phenoxy)pyridin-3-yl)-3-(4-(trifluoromethoxy)phenyl)urea], in the data set with platelet aggregation, the Platelet aggregation entry is on record as “substantially reduces”. In addition, in data set [1], the Effect on bleeding result was “minimal effect”.
